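Here, GI50 denotes the concentration required for 50% inhibition of growth. TGI: concentration producing complete growth inhibition.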
Columns and labels:
Experiment in all cases: DTP human tumour cell line panel, 384-well format
UACC-257 melanoma = test system: UACC-257 melanoma
SK-MEL-5 melanoma = test system: SK-MEL-5 melanoma
T-47D breast = test system: T-47D breast
HS 578T breast = test system: HS 578T breast
SF-295 CNS = test system: SF-295 CNS
HL-60(TB) leukemia = test system: HL-60(TB) leukemia
RXF 393 renal = test system: RXF 393 renal
NCI/ADR-RES ovarian = test system: NCI/ADR-RES ovarian
SF-539 CNS = test system: SF-539 CNS
UO-31 renal = test system: UO-31 renal
HCT-15 colon = test system: HCT-15 colon
DU-145 prostate = test system: DU-145 prostate
SF-268 CNS = test system: SF-268 CNS
PC-3 prostate = test system: PC-3 prostate
HCC-2998 colon = test system: HCC-2998 colon
MOLT-4 leukemia = test system: MOLT-4 leukemia
A549 NSCLC = test system: A549 NSCLC
NCI-H322M lung = test system: NCI-H322M lung
HT29 colon = test system: HT29 colon
ACHN renal = test system: ACHN renal
MDA-MB-231 breast = test system: MDA-MB-231 breast
NCI-H226 lung = test system: NCI-H226 lung
KM12 colon = test system: KM12 colon
OVCAR-8 ovarian = test system: OVCAR-8 ovarian
NCI-H23 lung = test system: NCI-H23 lung
EKVX NSCLC = test system: EKVX NSCLC
CCRF-CEM leukemia = test system: CCRF-CEM leukemia
SW-620 colon = test system: SW-620 colon
MDA-MB-468 breast = test system: MDA-MB-468 breast
RPMI-8226 leukemia = test system: RPMI-8226 leukemia
NCI-H522 lung = test system: NCI-H522 lung
OVCAR-4 ovarian = test system: OVCAR-4 ovarian
OVCAR-5 ovarian = test system: OVCAR-5 ovarian
U251 glioblastoma = test system: U251 glioblastoma
OVCAR-3 ovarian = test system: OVCAR-3 ovarian
MDA-MB-435 melanoma = test system: MDA-MB-435 melanoma
K-562 leukemia = test system: K-562 leukemia
LOX IMVI melanoma = test system: LOX IMVI melanoma
M14 melanoma = test system: M14 melanoma
HCT-116 colon = test system: HCT-116 colon
IGROV1 ovarian = test system: IGROV1 ovarian
COLO 205 colon = test system: COLO 205 colon
MALME-3M melanoma = test system: MALME-3M melanoma
SK-OV-3 ovarian = test system: SK-OV-3 ovarian
BT-549 breast = test system: BT-549 breast
A498 renal = test system: A498 renal
SN12C renal = test system: SN12C renal

In the case of `Cc1cc(-c2nnc(N)nc2-c2ccc(F)cc2)cc(Cl)n1`, the GI50 (UACC-257 melanoma) was 66.5 µM, the TGI (UACC-257 melanoma) was > 100 µM and the GI50 (SK-MEL-5 melanoma) was 88 µM. For the same compound, the TGI (SK-MEL-5 melanoma) was > 100 µM, the GI50 (T-47D breast) was 35.7 µM and the TGI (T-47D breast) was > 100 µM. For the same compound, the GI50 (HS 578T breast) was 62.8 µM, the TGI (HS 578T breast) was > 100 µM and the GI50 (SF-295 CNS) was > 84.4 µM. For the same compound, the TGI (SF-295 CNS) was > 100 µM, the GI50 (HL-60(TB) leukemia) was 36.5 µM and the TGI (HL-60(TB) leukemia) was > 100 µM. For the same compound, the GI50 (RXF 393 renal) was 28.5 µM, the TGI (RXF 393 renal) was > 100 µM and the GI50 (NCI/ADR-RES ovarian) was 25.3 µM. For the same compound, the TGI (NCI/ADR-RES ovarian) was 86.3 µM, the GI50 (SF-539 CNS) was > 100 µM and the TGI (SF-539 CNS) was > 100 µM. The GI50 (UO-31 renal) was 88.6 µM, the TGI (UO-31 renal) was > 100 µM and the GI50 (HCT-15 colon) was > 100 µM. The TGI (HCT-15 colon) was > 100 µM, the GI50 (DU-145 prostate) was > 100 µM and the TGI (DU-145 prostate) was > 100 µM. For the same compound, the GI50 (SF-268 CNS) was > 100 µM, the TGI (SF-268 CNS) was > 100 µM and the GI50 (PC-3 prostate) was > 73.2 µM. For the same compound, the TGI (PC-3 prostate) was > 100 µM, the GI50 (HCC-2998 colon) was > 100 µM and the TGI (HCC-2998 colon) was > 100 µM. For the same compound, the GI50 (MOLT-4 leukemia) was 30.5 µM, the TGI (MOLT-4 leukemia) was > 90.8 µM and the GI50 (A549 NSCLC) was > 100 µM. For the same compound, the TGI (A549 NSCLC) was > 100 µM, the GI50 (NCI-H322M lung) was > 100 µM and the TGI (NCI-H322M lung) was > 100 µM. For the same compound, the GI50 (HT29 colon) was > 100 µM, the TGI (HT29 colon) was > 100 µM and the GI50 (ACHN renal) was > 100 µM. The TGI (ACHN renal) was > 100 µM, the GI50 (MDA-MB-231 breast) was > 85.7 µM and the TGI (MDA-MB-231 breast) was > 100 µM. The GI50 (NCI-H226 lung) was > 100 µM, the TGI (NCI-H226 lung) was > 100 µM and the GI50 (KM12 colon) was > 87.1 µM. The TGI (KM12 colon) was > 100 µM, the GI50 (OVCAR-8 ovarian) was > 92.6 µM and the TGI (OVCAR-8 ovarian) was > 100 µM. For the same compound, the GI50 (NCI-H23 lung) was 32.5 µM, the TGI (NCI-H23 lung) was > 100 µM and the GI50 (EKVX NSCLC) was 52.9 µM. For the same compound, the TGI (EKVX NSCLC) was > 100 µM, the GI50 (CCRF-CEM leukemia) was 48.3 µM and the TGI (CCRF-CEM leukemia) was > 100 µM. The GI50 (SW-620 colon) was > 81.1 µM, the TGI (SW-620 colon) was > 100 µM and the GI50 (MDA-MB-468 breast) was 16.6 µM. For the same compound, the TGI (MDA-MB-468 breast) was 68.3 µM, the GI50 (RPMI-8226 leukemia) was 20.3 µM and the TGI (RPMI-8226 leukemia) was > 61.2 µM. For the same compound, the GI50 (NCI-H522 lung) was 42.9 µM, the TGI (NCI-H522 lung) was > 100 µM and the GI50 (OVCAR-4 ovarian) was > 91.2 µM. For the same compound, the TGI (OVCAR-4 ovarian) was > 100 µM, the GI50 (OVCAR-5 ovarian) was > 100 µM and the TGI (OVCAR-5 ovarian) was > 100 µM. The GI50 (U251 glioblastoma) was > 75.5 µM, the TGI (U251 glioblastoma) was > 100 µM and the GI50 (OVCAR-3 ovarian) was > 81.9 µM. The TGI (OVCAR-3 ovarian) was > 100 µM, the GI50 (MDA-MB-435 melanoma) was > 100 µM and the TGI (MDA-MB-435 melanoma) was > 100 µM. For the same compound, the GI50 (K-562 leukemia) was 37.8 µM, the TGI (K-562 leukemia) was > 100 µM and the GI50 (LOX IMVI melanoma) was > 100 µM. For the same compound, the TGI (LOX IMVI melanoma) was > 100 µM, the GI50 (M14 melanoma) was > 100 µM and the TGI (M14 melanoma) was > 100 µM. For the same compound, the GI50 (HCT-116 colon) was 75.6 µM, the TGI (HCT-116 colon) was > 100 µM and the GI50 (IGROV1 ovarian) was > 90.4 µM. The TGI (IGROV1 ovarian) was > 100 µM, the GI50 (COLO 205 colon) was > 100 µM and the TGI (COLO 205 colon) was > 100 µM. The GI50 (MALME-3M melanoma) was > 100 µM, the TGI (MALME-3M melanoma) was > 100 µM and the GI50 (SK-OV-3 ovarian) was > 100 µM. The TGI (SK-OV-3 ovarian) was > 100 µM, the GI50 (BT-549 breast) was 88.8 µM and the TGI (BT-549 breast) was > 100 µM. The GI50 (A498 renal) was > 100 µM, the TGI (A498 renal) was > 100 µM and the GI50 (SN12C renal) was > 100 µM. The TGI (SN12C renal) was > 100 µM.

With `Cc1ccc(-c2nc(N)nc3c2nnn3Cc2cccc(CO[C@H]3CCOC3)n2)o1` the GI50 (UACC-257 melanoma) was > 100 µM, the TGI (UACC-257 melanoma) was > 100 µM and the GI50 (SK-MEL-5 melanoma) was > 53.9 µM. The TGI (SK-MEL-5 melanoma) was > 100 µM, the GI50 (T-47D breast) was 32.4 µM and the TGI (T-47D breast) was > 100 µM. For the same compound, the GI50 (HS 578T breast) was > 100 µM, the TGI (HS 578T breast) was > 100 µM and the GI50 (SF-295 CNS) was > 100 µM. For the same compound, the TGI (SF-295 CNS) was > 100 µM, the GI50 (HL-60(TB) leukemia) was > 64.3 µM and the TGI (HL-60(TB) leukemia) was > 100 µM. For the same compound, the GI50 (RXF 393 renal) was 97.4 µM, the TGI (RXF 393 renal) was > 100 µM and the GI50 (NCI/ADR-RES ovarian) was > 77.1 µM. For the same compound, the TGI (NCI/ADR-RES ovarian) was > 100 µM, the GI50 (SF-539 CNS) was > 100 µM and the TGI (SF-539 CNS) was > 100 µM. For the same compound, the GI50 (UO-31 renal) was > 100 µM, the TGI (UO-31 renal) was > 100 µM and the GI50 (HCT-15 colon) was > 100 µM. The TGI (HCT-15 colon) was > 100 µM, the GI50 (DU-145 prostate) was > 100 µM and the TGI (DU-145 prostate) was > 100 µM. The GI50 (SF-268 CNS) was > 100 µM, the TGI (SF-268 CNS) was > 100 µM and the GI50 (PC-3 prostate) was > 100 µM. For the same compound, the TGI (PC-3 prostate) was > 100 µM, the GI50 (HCC-2998 colon) was > 100 µM and the TGI (HCC-2998 colon) was > 100 µM. The GI50 (MOLT-4 leukemia) was 42.2 µM, the TGI (MOLT-4 leukemia) was > 100 µM and the GI50 (A549 NSCLC) was > 100 µM. For the same compound, the TGI (A549 NSCLC) was > 100 µM, the GI50 (NCI-H322M lung) was > 100 µM and the TGI (NCI-H322M lung) was > 100 µM. For the same compound, the GI50 (HT29 colon) was > 100 µM, the TGI (HT29 colon) was > 100 µM and the GI50 (ACHN renal) was > 100 µM. The TGI (ACHN renal) was > 100 µM, the GI50 (MDA-MB-231 breast) was 88.2 µM and the TGI (MDA-MB-231 breast) was > 100 µM. For the same compound, the GI50 (NCI-H226 lung) was > 100 µM, the TGI (NCI-H226 lung) was > 100 µM and the GI50 (KM12 colon) was > 100 µM. The TGI (KM12 colon) was > 100 µM, the GI50 (OVCAR-8 ovarian) was > 100 µM and the TGI (OVCAR-8 ovarian) was > 100 µM. For the same compound, the GI50 (NCI-H23 lung) was > 100 µM, the TGI (NCI-H23 lung) was > 100 µM and the GI50 (EKVX NSCLC) was > 100 µM. The TGI (EKVX NSCLC) was > 100 µM, the GI50 (CCRF-CEM leukemia) was 72 µM and the TGI (CCRF-CEM leukemia) was > 100 µM. The GI50 (SW-620 colon) was > 100 µM, the TGI (SW-620 colon) was > 100 µM and the GI50 (MDA-MB-468 breast) was 35.5 µM. For the same compound, the TGI (MDA-MB-468 breast) was 99 µM, the GI50 (RPMI-8226 leukemia) was 93.6 µM and the TGI (RPMI-8226 leukemia) was > 100 µM. The GI50 (NCI-H522 lung) was > 100 µM, the TGI (NCI-H522 lung) was > 100 µM and the GI50 (OVCAR-4 ovarian) was > 100 µM. For the same compound, the TGI (OVCAR-4 ovarian) was > 100 µM, the GI50 (OVCAR-5 ovarian) was > 100 µM and the TGI (OVCAR-5 ovarian) was > 100 µM. For the same compound, the GI50 (U251 glioblastoma) was > 100 µM, the TGI (U251 glioblastoma) was > 100 µM and the GI50 (OVCAR-3 ovarian) was > 100 µM. For the same compound, the TGI (OVCAR-3 ovarian) was > 100 µM, the GI50 (MDA-MB-435 melanoma) was > 100 µM and the TGI (MDA-MB-435 melanoma) was > 100 µM. The GI50 (K-562 leukemia) was 57.5 µM, the TGI (K-562 leukemia) was > 100 µM and the GI50 (LOX IMVI melanoma) was > 100 µM. For the same compound, the TGI (LOX IMVI melanoma) was > 100 µM, the GI50 (M14 melanoma) was > 100 µM and the TGI (M14 melanoma) was > 100 µM. The GI50 (HCT-116 colon) was > 100 µM, the TGI (HCT-116 colon) was > 100 µM and the GI50 (IGROV1 ovarian) was > 100 µM. The TGI (IGROV1 ovarian) was > 100 µM, the GI50 (COLO 205 colon) was > 100 µM and the TGI (COLO 205 colon) was > 100 µM. The GI50 (MALME-3M melanoma) was > 100 µM, the TGI (MALME-3M melanoma) was > 100 µM and the GI50 (SK-OV-3 ovarian) was > 100 µM. The TGI (SK-OV-3 ovarian) was > 100 µM, the GI50 (BT-549 breast) was > 100 µM and the TGI (BT-549 breast) was > 100 µM. For the same compound, the GI50 (A498 renal) was > 100 µM, the TGI (A498 renal) was > 100 µM and the GI50 (SN12C renal) was > 100 µM. The TGI (SN12C renal) was > 100 µM.
